Reference: patent US9187472B2 (AbbVie Inc., priority 2012, dated 2015)

Assays:
PC3 cells = assay: NAMPT Cell Proliferation Assay; format: cell-based; settings: Homo sapiens, PC-3, 120 h, 5 days incubation, cell viability by Cell Titer Glo
Summary of the method: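 PC3 cells were plated at 500 cells/well in RPMI with 10% heat-inactivated FBS, left to attach overnight, then given compounds in 10-fold dilutions from 10 μM to 1×10^−5 μM. After 5 days at 37° C and 5% CO2, viability was read by luminescence and IC50s came from sigmoidal fits of percent inhibition.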

NAMPT = NAMPT (Homo sapiens, UniProt P43490); assay: TR-FRET Binding Assay of NAMPT with PRPP; settings: with 200 μM PRPP and 2.5 mM ATP; 2 nM NAMPT, 2 nM probe, 16 hours equilibration
Chain of NAMPT (P43490 whole entry): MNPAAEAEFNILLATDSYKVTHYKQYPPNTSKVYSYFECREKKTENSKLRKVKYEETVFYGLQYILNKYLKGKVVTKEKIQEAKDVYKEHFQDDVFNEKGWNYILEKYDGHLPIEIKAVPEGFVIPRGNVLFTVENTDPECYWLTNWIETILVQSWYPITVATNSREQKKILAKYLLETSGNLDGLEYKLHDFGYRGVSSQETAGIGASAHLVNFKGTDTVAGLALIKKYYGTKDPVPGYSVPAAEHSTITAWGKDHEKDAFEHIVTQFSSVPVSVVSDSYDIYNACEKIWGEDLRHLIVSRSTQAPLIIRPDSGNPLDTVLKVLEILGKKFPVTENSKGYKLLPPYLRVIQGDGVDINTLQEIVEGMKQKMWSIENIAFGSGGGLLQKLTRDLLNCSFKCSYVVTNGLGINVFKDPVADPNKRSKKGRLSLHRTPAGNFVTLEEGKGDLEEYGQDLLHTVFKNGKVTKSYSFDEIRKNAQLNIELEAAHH
Summary of the method: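 Human NAMPT (2 nM) with 2 nM probe and 1 nM Tb-anti-His antibody, plus 200 μM PRPP and 2.5 mM ATP, 2% DMSO. TR-FRET read after 16 h equilibration, permitting possible enzymatic modification of test compounds; data processing as for the substrate-free format.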

[1] = target: NAMPT (human, recombinant, C-terminally His-tagged) (Homo sapiens, UniProt P43490); assay: Time-Resolved Fluorescence Resonance Energy Transfer (TR-FRET) Binding Assay of NAMPT; settings: without substrates; 6.8 nM NAMPT, 200 nM probe, 3 hours equilibration
Chain of NAMPT (human, recombinant, C-terminally His-tagged) (P43490 whole entry): as above
Summary of the method: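 A TR-FRET probe-displacement assay used 6.8 nM His-tagged recombinant human NAMPT, 200 nM Oregon Green 488-labelled nicotinamide-competitive probe and 1 nM Tb-anti-His antibody. Buffer was HEPES pH 7.5 with NaCl, MgCl2, DTT and glycerol, plus 2% DMSO, equilibrated 3 h at room temperature. Em520/Em495 ratios, normalized to controls, gave IC50 by four-parameter logistic fit.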

Row | IC50 (PC3 cells) [nM] | IC50 (NAMPT) [nM] | IC50 [1] [nM] | SMILES
1 | 9.27 | 0.277 | 396 | O=C(NCc1ccn2ccnc2c1)c1ccc(C2CCN(C(=O)C3CCOCC3)CC2)cc1 [Example 232, N-(imidazo[1,2-a]pyridin-7-ylmethyl)-4-[1-(tetrahydro-2H-pyran-4-ylcarbonyl)piperidin-4-yl]benzamide]
2 | 9.37 | 0.401 | 495 | O=C(NCc1ccn2ccnc2c1)c1ccc(C2CCN(C(=O)C3COCCO3)CC2)cc1 (stereo not drawn) [Example 233, 4-[1-(1,4-dioxan-2-ylcarbonyl)piperidin-4-yl]-N-(imidazo[1,2-a]pyridin-7-ylmethyl)benzamide]
3 | 105 | 0.736 | 904 | O=C(NCc1ccn2ccnc2c1)c1ccc(C2CCN(C(=O)C3CCS(=O)(=O)CC3)CC2)cc1 [Example 234, 4-{1-[(1,1-dioxidotetrahydro-2H-thiopyran-4-yl)carbonyl]piperidin-4-yl}-N-(imidazo[1,2-a]pyridin-7-ylmethyl)benzamide]
4 | 55.5 | 0.369 | 494 | O=C(NCc1ccn2ccnc2c1)c1ccc(C2CCN(C(=O)CC3CCCO3)CC2)cc1 (stereo not drawn) [Example 235, N-(imidazo[1,2-a]pyridin-7-ylmethyl)-4-[1-(tetrahydrofuran-2-ylacetyl)piperidin-4-yl]benzamide]
5 | 13.8 | 0.243 | 604 | O=C(NCc1ccn2ccnc2c1)c1ccc(C2CCN(C(=O)CC3CCOCC3)CC2)cc1 [Example 236, N-(imidazo[1,2-a]pyridin-7-ylmethyl)-4-[1-(tetrahydro-2H-pyran-4-ylacetyl)piperidin-4-yl]benzamide]
6 | 37.2 | 0.285 | 451 | CC(C)OCC(=O)N1CCC(c2ccc(C(=O)NCc3ccn4ccnc4c3)cc2)CC1 [Example 237, N-(imidazo[1,2-a]pyridin-7-ylmethyl)-4-{1-[(propan-2-yloxy)acetyl]piperidin-4-yl}benzamide]
7 | 2.57 | 0.187 | 123 | CC[C@H](C)C(=O)N1CCC(c2ccc(C(=O)NCc3ccn4ccnc4c3)cc2)CC1 [Example 238, N-(imidazo[1,2-a]pyridin-7-ylmethyl)-4-{1-[(2S)-2-methylbutanoyl]piperidin-4-yl}benzamide]
8 | 17.7 | 0.771 | 308 | CC(C)C(=O)N1CCC(c2ccc(C(=O)NCc3ccn4ccnc4c3)cc2)CC1 [Example 239, N-(imidazo[1,2-a]pyridin-7-ylmethyl)-4-[1-(2-methylpropanoyl)piperidin-4-yl]benzamide]
9 | 28 | 0.169 | 169 | O=C(NCc1ccn2ccnc2c1)Nc1ccc(C2CCN(C(=O)C3CCS(=O)(=O)CC3)CC2)cc1 [Example 243, 1-(4-{1-[(1,1-dioxidotetrahydro-2H-thiopyran-4-yl)carbonyl]piperidin-4-yl}phenyl)-3-(imidazo[1,2-a]pyridin-7-ylmethyl)urea]
10 | 0.702 | 0.229 | 14.4 | O=C(NCc1ccn2ccnc2c1)c1ccc(-c2cnn(CC3CCCOC3)c2)s1 (stereo not drawn) [Example 253, N-(imidazo[1,2-a]pyridin-7-ylmethyl)-5-[1-(tetrahydro-2H-pyran-3-ylmethyl)-1H-pyrazol-4-yl]thiophene-2-carboxamide]
11 | 15.2 | 0.344 | 101 | COCC(=O)N1CCC(c2ccc(C(=O)NCc3ccn4ccnc4c3)s2)CC1 [Example 257, N-(imidazo[1,2-a]pyridin-7-ylmethyl)-5-[1-(methoxyacetyl)piperidin-4-yl]thiophene-2-carboxamide]
12 | 32.5 | 0.558 | 113 | CC(=O)N1CCC(c2ccc(C(=O)NCc3ccn4ccnc4c3)s2)CC1 [Example 258, 5-(1-acetylpiperidin-4-yl)-N-(imidazo[1,2-a]pyridin-7-ylmethyl)thiophene-2-carboxamide]

Second part, the compound before the results:

Row | SMILES | IC50 (PC3 cells) [nM] | IC50 (NAMPT) [nM] | IC50 [1] [nM]
13 | COCCC(=O)N(Cc1ccc(C#N)cc1)c1ccc(C(=O)NCc2ccc3nccn3c2)cc1 [Example 240, 4-[(4-cyanobenzyl)(3-methoxypropanoyl)amino]-N-(imidazo[1,2-a]pyridin-6-ylmethyl)benzamide] | 651 | 8.75 | 7350
14 | CC(=O)N1CC=C(c2ccc(C(=O)NCc3ccn4ccnc4c3)s2)CC1 [Example 241, 5-(1-acetyl-1,2,3,6-tetrahydropyridin-4-yl)-N-(imidazo[1,2-a]pyridin-7-ylmethyl)thiophene-2-carboxamide] | 8.48 | 0.169 | 67.4
15 | CS(=O)(=O)N1CC=C(c2ccc(C(=O)NCc3ccn4ccnc4c3)s2)CC1 [Example 242, N-(imidazo[1,2-a]pyridin-7-ylmethyl)-5-[1-(methylsulfonyl)-1,2,3,6-tetrahydropyridin-4-yl]thiophene-2-carboxamide] | 7.56 | 0.169 | 57.1
16 | O=C(NCc1ccn2ccnc2c1)c1cnc(N2C(=O)CC[C@H]2CO)s1 [Example 244, 2-[(2S)-2-(hydroxymethyl)-5-oxopyrrolidin-1-yl]-N-(imidazo[1,2-a]pyridin-7-ylmethyl)-1,3-thiazole-5-carboxamide] | 7040 | 1.69 | > 10000
17 | C[C@@H]1COC(=O)N1c1ncc(C(=O)NCc2ccn3ccnc3c2)s1 [Example 245, N-(imidazo[1,2-a]pyridin-7-ylmethyl)-2-[(4R)-4-methyl-2-oxo-1,3-oxazolidin-3-yl]-1,3-thiazole-5-carboxamide] | 5500 | 0.502 | 2890
18 | O=C(NCc1ccn2ccnc2c1)c1ccc(C2=CCN(S(=O)(=O)C3CC3)CC2)s1 [Example 246, 5-[1-(cyclopropylsulfonyl)-1,2,3,6-tetrahydropyridin-4-yl]-N-(imidazo[1,2-a]pyridin-7-ylmethyl)thiophene-2-carboxamide] | 2.43 | 0.22 | 73.2
19 | O=C(NCc1ccn2ccnc2c1)c1ccc(-c2cnn(CC3CCCCO3)c2)s1 (stereo not drawn) [Example 247, N-(imidazo[1,2-a]pyridin-7-ylmethyl)-5-[1-(tetrahydro-2H-pyran-2-ylmethyl)-1H-pyrazol-4-yl]thiophene-2-carboxamide] | 1.34 | 0.275 | 62.7
20 | O=C(NCc1ccn2ccnc2c1)c1ccc(-c2cnn(CC3CCCO3)c2)s1 (stereo not drawn) [Example 248, N-(imidazo[1,2-a]pyridin-7-ylmethyl)-5-[1-(tetrahydrofuran-2-ylmethyl)-1H-pyrazol-4-yl]thiophene-2-carboxamide] | 2.42 | 0.169 | 65.8
21 | CC(C)OCC1CN(c2ncc(C(=O)NCc3ccn4ccnc4c3)s2)C(=O)O1 (stereo not drawn) [Example 249, N-(imidazo[1,2-a]pyridin-7-ylmethyl)-2-{2-oxo-5-[(propan-2-yloxy)methyl]-1,3-oxazolidin-3-yl}-1,3-thiazole-5-carboxamide] | 66.5 | 0.72 | 817
22 | CC(C)[C@@H]1COC(=O)N1c1ccc(C(=O)NCc2ccn3ccnc3c2)s1 [Example 250, N-(imidazo[1,2-a]pyridin-7-ylmethyl)-5-[(4R)-2-oxo-4-(propan-2-yl)-1,3-oxazolidin-3-yl]thiophene-2-carboxamide] | 0.675 | 0.23 | 20.5
23 | O=C(NCc1ccn2ccnc2c1)c1cnc(N2CC(CO)OC2=O)s1 (stereo not drawn) [Example 251, 2-[5-(hydroxymethyl)-2-oxo-1,3-oxazolidin-3-yl]-N-(imidazo[1,2-a]pyridin-7-ylmethyl)-1,3-thiazole-5-carboxamide] | 1840 | 0.63 | 2200
24 | O=C(NCc1ccn2ccnc2c1)c1ccc(-c2cnn(CC3CCOC3)c2)s1 (stereo not drawn) [Example 252, N-(imidazo[1,2-a]pyridin-7-ylmethyl)-5-[1-(tetrahydrofuran-3-ylmethyl)-1H-pyrazol-4-yl]thiophene-2-carboxamide] | 1.91 | 0.274 | 37.4
25 | CC1(Cn2cc(-c3ccc(C(=O)NCc4ccn5ccnc5c4)s3)cn2)COC1 [Example 254, N-(imidazo[1,2-a]pyridin-7-ylmethyl)-5-{1-[(3-methyloxetan-3-yl)methyl]-1H-pyrazol-4-yl}thiophene-2-carboxamide] | 0.938 | 0.306 | 31.3
26 | CC(C)OC[C@@H]1CN(c2ncc(C(=O)NCc3ccn4ccnc4c3)s2)C(=O)O1 [Example 255, N-(imidazo[1,2-a]pyridin-7-ylmethyl)-2-{(5S)-2-oxo-5-[(propan-2-yloxy)methyl]-1,3-oxazolidin-3-yl}-1,3-thiazole-5-carboxamide] | 4290 | 2.22 | 8190
27 | CC(C)OC[C@H]1CN(c2ncc(C(=O)NCc3ccn4ccnc4c3)s2)C(=O)O1 [Example 256, N-(imidazo[1,2-a]pyridin-7-ylmethyl)-2-{(5R)-2-oxo-5-[(propan-2-yloxy)methyl]-1,3-oxazolidin-3-yl}-1,3-thiazole-5-carboxamide] | 9.84 | 0.266 | 126
